Measurements from ChEMBL document CHEMBL5104092, “An insight into the recent development of the clinical candidates for the treatment of malaria and their target proteins” (Eur J Med Chem, 2021).

Experiments:
A549 = experiment: Cytotoxicity against human A549 cells; format: functional
[1] = Cytotoxicity against human HEK293 cells; format: toxicity, cell-based
Plasmodium falciparum [2] = experiment: Antimalarial activity against Plasmodium falciparum Dd2; format: functional, organism-based
HepG2 = experiment: Cytotoxicity against human HepG2 cells; format: functional, cell-based
Plasmodium falciparum [3] = experiment: Antimalarial activity against chloroquine sensitive Plasmodium falciparum 3D7 incubated for 72 hrs by SYBR green I assay; format: functional, organism-based; conditions: 3D7, 72 h
Plasmodium falciparum [4] = experiment: Antimalarial activity against chloroquine resistant Plasmodium falciparum K1 infected in human erythrocytes by microplate fluorometric detection method; format: functional, organism-based
Plasmodium falciparum [5] = experiment: Antimalarial activity against chloroquine sensitive Plasmodium falciparum T96 infected in human erythrocytes by microplate fluorometric detection method; format: functional, organism-based
Plasmodium falciparum [6] = experiment: Antimalarial activity against chloroquine sensitive Plasmodium falciparum 3D7 incubated for 72 hrs by malaria SYBR green I nucleic acid staining dye based fluorescence assay; format: functional, organism-based; conditions: 3D7, 72 h
Plasmodium falciparum [7] = experiment: Antimalarial activity against multidrug resistant Plasmodium falciparum Dd2 incubated for 72 hrs by malaria SYBR green I nucleic acid staining dye based fluorescence assay; format: functional, organism-based; conditions: Dd2, 72 h
Plasmodium falciparum [8] = experiment: Antimalarial activity against multidrug resistant Plasmodium falciparum K1 incubated for 72 hrs by malaria SYBR green I nucleic acid staining dye based fluorescence assay; format: functional, organism-based; conditions: K1, 72 h
Plasmodium falciparum [9] = experiment: Antimalarial activity against chloroquine resistant Plasmodium falciparum Dd2 incubated for 72 hrs by malaria SYBR green I based assay; format: functional, organism-based; conditions: Dd2, 72 h

In the case of `COc1ccc(NC(=O)N2CCCCN3C[C@H](c4ccc(C#Cc5ccccc5)cc4)[C@@H]3C2)cc1`, the CC50 (A549) is reported as 38000 nM, the CC50 [1] is reported as > 50000 nM and the EC50 (Plasmodium falciparum [2]) is reported as 15 nM. For the same molecule, the CC50 (HepG2) was > 50000 nM.
Molecule `C=C(c1ccc(C)cc1C)C1COC2(CCC(Nc3ccccc3)CC2)OO1` (stereo unspecified) has an IC50 (Plasmodium falciparum [3]) of 19.6 nM.
Work on `COC(=O)CC[C@@H](C)[C@H]1CCC2C3CC[C@@H]4CC5(CC[C@]4(C)C3C[C@H](OC(C)=O)[C@@]21C)OOC(C)(C)OO5` (stereo partly specified) yielded an EC50 (Plasmodium falciparum [4]) of 3 nM and an EC50 (Plasmodium falciparum [5]) of 131 nM.
For `C[C@@H]1CCC2[C@@H](C)[C@H](OC(=O)CCC(=O)NCCNc3ccnc4cc(Cl)ccc34)O[C@@H]3O[C@]4(C)CC[C@@H]1[C@@]23OO4` (stereo partly specified), the EC50 (Plasmodium falciparum [6]) was 2.7 nM, the EC50 (Plasmodium falciparum [7]) was 1 nM and the EC50 (Plasmodium falciparum [8]) was 0.78 nM.
For `CN(C)CCNc1cc(/C=C/c2ccncc2)nc2ccccc12`, the IC50 (Plasmodium falciparum [9]) was 33 nM.
